Measured values as given in patent publication US9896668B2, “Substrate-mimetic AKT inhibitor” (University of South Florida, priority 2006, dated 2018).
Square brackets hold non-standard residues; d marks the D form. Peptide text beside a SMILES is read from it. * marks the point of attachment. 4Abz = Nc1ccc(C(=O)O)cc1; NHBn = c1ccc(CN*)cc1

Target: Akt1 (Homo sapiens, UniProt P31749)
Test: in vitro inhibition of Akt, fluorescence polarization assay (IMAP Akt Assay Kit)
Type: biochemical
Procedure: FIG. 9 is a table of investigations into the hydrophobic interactions between the GSK-3 residues central hydrophobic contacts and Akt. The values reported are an average of three independent binding curves using an IMAP™ Akt Assay Kit (Molecular Devices). Reactions were conducted in wells with 20.0 μL of 10 mM Tris-HCl (pH 7.2), 10 mM MgCl2, 0.1% BSA, 0.05% NaN3, 1 mM DTT, 100 nM 5FAM-[…]-COOH, 5 μM ATP, Akt1, and inhibitor. Reaction mixtures were incubated for 1 h at room temperature and then quenched with 60 μL of the IMAP-binding solution. The reactions were equilibrated for 1 h at room temperature then data points were collected and analyzed.
FIG. 14 is a table showing the optimization of C-terminal and central substituents for non-peptide inhibitors. ^a Reported values are an average of three independent-binding curves utilizing an IMAP® Akt Assay Kit (Molecular Devices). […] The reactions were equilibrated for 1 h at room temperature then data points were collected and analyzed. […]
Peptidomimetic inhibitors were generated directly from the minimal substrate sequence by systematic replacement of the non-critical amino acids and tested for in vitro inhibition of Akt using a fluorescence polarization assay system, shown in FIG. 3. […]

Sequence of Akt1 (P31749 whole entry): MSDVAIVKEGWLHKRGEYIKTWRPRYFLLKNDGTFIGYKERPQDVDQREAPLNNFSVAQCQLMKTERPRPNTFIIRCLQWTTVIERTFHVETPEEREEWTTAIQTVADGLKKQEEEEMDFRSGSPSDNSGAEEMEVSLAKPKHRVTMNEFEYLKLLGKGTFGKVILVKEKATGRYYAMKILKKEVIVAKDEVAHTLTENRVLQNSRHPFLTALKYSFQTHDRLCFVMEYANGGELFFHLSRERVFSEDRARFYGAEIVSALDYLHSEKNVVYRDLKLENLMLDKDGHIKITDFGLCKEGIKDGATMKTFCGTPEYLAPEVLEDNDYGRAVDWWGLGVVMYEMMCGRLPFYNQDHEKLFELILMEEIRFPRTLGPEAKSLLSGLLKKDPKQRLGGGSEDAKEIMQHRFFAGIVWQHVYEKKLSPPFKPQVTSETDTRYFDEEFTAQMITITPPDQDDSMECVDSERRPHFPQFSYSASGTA

**Q.** `CC(=O)NCC(=O)N[C@@H](CCCNC(=N)N)C(=O)N1CCC[C@H]1C(=O)N[C@@H](CCCNC(=N)N)C(=O)Nc1ccc(C(=O)N[C@H](C(=O)N[C@@H](Cc2ccccc2)C(=O)NCc2ccccc2)C(C)C)cc1` [Inhibitor 10] (Ac-GRPR[4Abz]VF-NHBn) was tested. Which IC50 (IMAP Akt Assay Kit, 5 μM ATP, 100 nM 5FAM-GRPRTSSFAEG-COOH, 1 h room temperature) did it give?
**A.** The IC50 was 28 µM.

**Q.** What about the “fold increase in potency/activity versus parent inhibitor” value (in vitro Akt inhibition) of the same compound?
**A.** Its value is 10 fold.
